The nature of data set [1]: Determination of iron(III) affinity (Logβ1, Logβ2, Logβ3) by spectrophotometric titration. The data set is classed as physicochemical. To be noted: DMSO:KCl (0.1 M) = 2:3 (V/V), 25 °C; for Logβ1: compound:iron 1.1:1; for Logβ2 / Logβ3: compound:iron 5:1. The protocol: (§1) The automatic titration system used in the test consisted of an automatic titrator, a luminescence 759 s UV-Vis spectrophotometer, and a pH Meter (Mettler Toledo InLab Expert PRO/Mettler Toledo InLab Science). All instruments are controlled by a computer program.
(§2) The testing solution (2:3 DMSO/KCl (0.1 M), V/V) was maintained at 25 °C using a TP-3A temperature controller. The cuvette is mounted on a spectrophotometer. The E0 and s of the pH Meter were calibrated by three standard solutions (pH = 6.86, 9.18, 4.00). KCl solution (0.1 M) was used to maintain the ionic strength. For the Fe(III) affinity evaluation, the ratio of compounds to iron ion was kept at 1.1:1 (n/n) when Logβ1 was measured; the ratio of compounds to iron ion was kept at 5:1 (n/n) when Logβ2 and Logβ3 were tested.
A 45 ml KCl (0.1 M) solution was added to the cuvette (50 mm) and the pH value was acidified to 2.1. Then 30 μM DMSO solution of the testing compound and 60 μL acidic solution of FeCl3 (15 mM) were added separately, and the mixture was vigorously stirred. After the absorbance value is stabilised, a certain amount of HCl solution (4 M) was added by the automatic buret to reduce the pH of the solution by 0.1. After the system was equilibrated, the spectral scan was performed once after 20 min. This protocol was repeated until the specified endpoint of the pH value was reached. All data was recorded with the internal Visual Basic program, HypSpec2014 program was utilised for the data analysis.
Similarly, 45 ml KCl (0.1 M) solution was added to the cuvette (50 mm) and the pH value was acidified to 2.1. Then 30 μM DMSO solution of the testing compound and 60 μL acidic solution of FeCl3 (15 mM) were added separately, and the mixture was vigorously stirred. After the absorbance value is stabilised, a certain amount of KOH solution (0.1 M) was added by the automatic buret to increase the pH of the solution by 0.1. After the system was equilibrated, the spectral scan was performed once after 5 min. This protocol was repeated until the specified endpoint of the pH value was reached. All data were recorded with the internal Visual Basic program, HypSpec2014 program was utilised for the data analysis[5]^,[21]^,[22].

Data set [2] in a line: pKa determination by automatic spectrophotometric titration. The data set is classed as physicochemical. To be noted: DMSO:KCl (0.1 M) = 2:3 (V/V), 25 °C; for pKa: DMSO/0.1 M KCl 2:3 (V/V) solution. As to the method:
as §1, §2
The titration was performed in a 50 mm path length cuvette. 45 ml KCl (0.1 M) solution, 40 μL of saturated EDTA solution were added to the cuvette. The pH value of the solution was acidified to 2.0 with hydrochloric acid (1.5 M). Then 20 μL of test compound DMSO solution (30 μM/L) was added and stirred vigorously. By adding KOH solution (0.1 M) from the automatic buret, the pH value of the solution was increased by 0.1. […] Adding KOH solution (0.1 M) and repeated the automatic process until the specified endpoint of pH value was reached. All data were recorded internally by the Visual Basic program, and the test results are analysed by the HypSpec2014 program.

A short description of data set [3]: Calculation of pFe3+ by HySS software from pKa and logβ values. The data set is classed as physicochemical. The protocol: The values of pFe^3+ were calculated by HySS software according to the results of pKa1, pKa2, logβ1, logβ2, and logβ3 determined by the above methods. The basic parameters were set as follows: FeOH = –2.563, Fe(OH)2 = –6.205, Fe(OH)3 = –15.1, Fe2(OH)2 = –2.843, Fe3(OH)4 = –6.059, Fe(OH)4 = –21.883[23].

A short description of data set [4]: pKa determination by automatic spectrophotometric titration. The note with it: 0.1 M KCl solution, Figure 2; 0.1 M KCl at 25 °C; read-out: pKa1 (Figure 2, printed as pH at curve crossing). The data set is classed as physicochemical.
A further data set deals with T1, Human MAO-B (Homo sapiens, UniProt P27338).
T1 construct: purchased Sigma-Aldrich
T1 sequence (P27338 1-520): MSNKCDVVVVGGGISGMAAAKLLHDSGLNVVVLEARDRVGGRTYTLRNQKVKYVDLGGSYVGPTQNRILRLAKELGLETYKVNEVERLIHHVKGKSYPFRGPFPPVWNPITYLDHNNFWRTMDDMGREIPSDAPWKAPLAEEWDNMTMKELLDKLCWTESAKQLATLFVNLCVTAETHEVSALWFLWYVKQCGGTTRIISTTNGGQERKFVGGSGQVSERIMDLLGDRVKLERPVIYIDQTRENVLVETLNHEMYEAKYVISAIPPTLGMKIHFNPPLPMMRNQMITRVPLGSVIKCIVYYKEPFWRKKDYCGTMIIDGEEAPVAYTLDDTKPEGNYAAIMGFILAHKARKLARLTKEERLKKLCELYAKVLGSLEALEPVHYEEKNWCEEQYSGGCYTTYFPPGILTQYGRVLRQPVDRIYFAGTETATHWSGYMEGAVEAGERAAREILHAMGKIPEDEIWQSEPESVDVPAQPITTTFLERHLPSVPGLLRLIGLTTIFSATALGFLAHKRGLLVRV
Kind of data set: Determination of human MAO-B inhibitory activity (Monoamine Oxidase Assay Kit, fluorescence). The data set is classed as biochemical.

On the set-up of data set [5]: method as in ref 17 = [17]; 17 Li Z-S , Qiao R-P , Yang Z-J , et al. One-step synthesis of novel tricyclic isomeric azidonucleosides . Tetrahedron Asymmetry 2006; 17 : 1056 – 61 . The note with it: cited from earlier work.
Details of data set [6]: method as in ref 17 = [17]; 17 Li Z-S , Qiao R-P , Yang Z-J , et al. One-step synthesis of novel tricyclic isomeric azidonucleosides . Tetrahedron Asymmetry 2006; 17 : 1056 – 61 . The note with it: cited from earlier work. The source holds these as a separate data set.
Data set [7] is described as follows: Determination of iron(III) affinity (Logβ1, Logβ2, Logβ3) by spectrophotometric titration. The data set is classed as physicochemical. The note with it: measured in 0.1 M KCl solution.
On the set-up of data set [8]: method as in ref 17 = [17]; 17 Li Z-S , Qiao R-P , Yang Z-J , et al.  . Tetrahedron Asymmetry 2006; 17 : 1056 – 61 . To be noted: cited from earlier work.
Where [9] appears, read: DMSO:KCl (0.1 M) = 2:3 (V/V), calculated by HySS from pKa1, pKa2, logβ1-3.

Where two headings read alike, the source gives them in different places. Marks after values point to notes of the source that are not given here.

Method for Human MAO-B: Human MAO-B (5 mg/mL) was purchased from Sigma-Aldrich and was pre-aliquoted and stored at -70 °C. 200 μL enzymatic reactions were diluted in 2 ml microcentrifuge tubes by potassium phosphate buffer (Assay Buffer, pH 7.4) which have been provided by Sigma-Aldrich Monoamine Oxidase Assay Kit. The final volumes of the reactions were 100 μL and contained 45 μL MAO-B (0.0075 mg/mL), included 5 μL different concentrations of the testing inhibitors (10 μM, 1 μM), and 50 μL Master Reaction, p-Tyramine, HRP Enzyme and Dye Reagent. Stock solutions of the compounds were prepared in DMSO.

What is called melting point is the temperature, or range, at which the solid turns liquid. In general, IC50 refers to the concentration at which inhibition is half-maximal. Compound `CCc1c(O)c(=O)ccn1CCCn1cc(COc2cc3ccccc3oc2=O)nn1` [Compound 27j, 2-ethyl-3-hydroxy-1–(3-(4-(((2-oxo-2H-chromen-3-yl)oxy)methyl)-1H-1,2,3-triazol-1-yl)propyl)pyridin-4(1H)-one] registered a melting point of 192 to 195 °C. In data set [1], this compound returned a Logβ1 of 14.6, a Logβ2 of 25.7 and a Logβ3 of 33.5. Besides, the pKa in [2] (read-out: pKa1) amounted to 3.3. Besides, the pKa in [2] (read-out: pKa2) is 9.8. Further, the “pFe3+” value in data set [3] (setting [9]) is 17.1. The pKa in data set [4] stood at 3.4. In addition, half-maximal inhibition against Human MAO-B (IC50) was put at 860 nM. Further, the “Inhibitory rate (%) 1 μM” value at Human MAO-B (compound at 1 μM, 1 µM) was 62.43%. Also, the inhibition at 1 µM at Human MAO-B (compound at 1 μM, read-out: Inhibitory rate (%) 1 μM) amounted to 62%. The inhibition at 10 µM at Human MAO-B (compound at 10 μM, read-out: Inhibitory rate (%) 10 μM) was 88.8%.

Take `Cc1c(O)c(=O)ccn1C` [Deferiprone]: the “pFe3+” value in [5] was 20.7^c; in [3] (setting [9]), 17.4; in [3] (data measured in 0.1 M KCl solution), 20.1^b. Further, the values for the Logβ1 in data set [6] and in data set [1] were 15.03^c and 14.83, respectively. Moreover, the Logβ2 in data set [6] was 27.42^c; in [1], 25.7; in data set [7], 27.0^b. Besides, the Logβ3 in data set [6] is 37.35^c; in [1] it was 33.6; in data set [7] it was 36.4^b. In [2], this compound registered a pKa1 of 3.68. Moreover, the pKa2 in data set [8] was 9.78^c.
